Test results from paper PMC11807808, “In vitro gastrointestinal digestion simulation screening of novel ACEI peptides from broccoli: mechanism in high glucose-induced VSMCs dysfunction” (Frontiers in Nutrition, 2025).
“Also recorded” adds a separate entry of the source. Where no end group is shown, it is not given here.

Assays:
[1] = target: T1, Angiotensin converting enzyme (ACE) (Homo sapiens, UniProt P12821); experiment: ACE inhibitory (ACEI) activity, HHL substrate, HPLC detection of hippuric acid; assay type: biochemical; details: synthetic peptides; HHL 5 mM, ACE 0.025 U/mL, 37°C 60 min, HPLC 228 nm
T1 construct: purchased Sigma–Aldrich (Shanghai) Trading Co., Ltd
Description: Eighty microlitres of HHL solution (5 mM) and 30 μL of sample mixture were incubated at 37°C for 5 min. Then, 40 μL of ACE solution (0.025 U/mL) was added to the mixture, followed by incubation at 37°C for 60 min. The reaction was terminated by adding 120 μL of 1 M HCl. After the addition of 700 μL of pure water, the mixture was filtered through a 0.22 μm membrane ([25]). The experiment included four groups: a control group (pure water), a negative control group (blank digestion solution), a positive control group (protein mixture), and a sample group (protein digestion solution). In the control group, HCl was added immediately after ACE.
Chromatograms were recorded via an Agilent instrument (Agilent, California, USA). Column: CAPCELL CORE AQ C18, 4.6 × 150 mm, 5 μm (Shiseido, Tokyo, Japan). Column temperature: 30°C. Flow rate: 1 mL/min. The injection volume was 100 μL. Mobile phase: 0.1% trifluoroacetic acid aqueous solution (A) and pure acetonitrile (B). Detection wavelength: 228 nm. Elution gradient: 0–10 min, 80% A/20% B. The calculation method was as follows:
Inhibitionrate(%)=[PA]c-[PA]s/[PA]c-[PA]b×100%
where [PA]c, [PA]s, and [PA]b represented the peak area of HA at 228 nm of the control group, experimental group, and blank group, respectively.

[2] = In vitro simulated gastrointestinal digestion (pepsin, trypsin): digestibility / digestion stability; assay type: in vitro ADME; details: stability under digestion conditions in vitro; pepsin pH 2.0 37°C 2 h, then trypsin pH 8.0 37°C 2 h as described for the hydrolysate; mean ± spread
Description: In vitro digestion simulation was performed based on the method of Hao et al. ([24]). Broccoli protein suspension (5%, w/v) was hydrolyzed with papain (1%, E/S ratio) for 6 h (pH 7.0, 55°C). After hydrolysis, inactivated at 100°C for 10 min and cooled to 25°C. Based on the method of Hao et al. ([24]), the simulated digestion of broccoli papain hydrolysate was conducted. In short, 0.1 g pepsin (pH = 2.0) was mixed with the hydrolysate and placed at 37°C for 2 h. Then 0.2 g trypsin (pH = 8.0) was added and incubated at 37°C for 2 h. After enzymatic hydrolysis, the enzyme was inactivated at 95°C for 10 min, cooled to 25°C, and the supernatant was collected. Subsequently, freeze-dried broccoli crude peptide was applied to the determination of ACEI activity.
The crude protein hydrolysis of broccoli was analyzed by high performance liquid chromatography (Agilent 1260, California, USA). The Column was XBridge Peptides BEH C18 Column 130A, 4.6 × 250 mm, 5 μm (Waters, Massachusetts, USA). Column temperature: 37°C. Flow rate: 1 mL/min. Sample size: 100 μL. Mobile phase: 0.1% trifluoroacetic acid aqueous solution (phase A) and pure acetonitrile (phase B). Detection wavelengths: 214 and 280 nm. Elution gradient: 0–5 min, 100%A/0%B; 5–25 min, 60%A/40%B; 25–26 min, 20%A/80%B; 26–31 min, 20%A/80%B; 31–32 min, 100%A/0%B; 32–37 min, 100%A/0%B.

VSMCs [3] = experiment: CCK-8 cell viability of VSMCs in high glucose; assay type: cell-based, Sprague–Dawley rats; details: high glucose (HG); for VSMC proliferation / viability: peptides 0.0313-0.5 mg/mL
Description: (§1) Thoracic aortas from male Sprague–Dawley rats (250–300 g) were dispersed in HBSS solution, which contained 1 mg/mL collagenase II (146 U/mg, Worthington Biochemical Corp., Freehold, NJ) and 0.5 mg/mL elastase I (32 U/mg, Worthington Biochemical Corp., Freehold, NJ). The mixture was digested for 90 min to obtain the appropriate VSMCs. The obtained VSMCs were subsequently cultured in DMEM supplemented with 10% FBS, 2 mmol/L glutamine, and 1 g/L D-glucose at 37°C in a humidified atmosphere of 5% CO2. The purity of the VSMCs was evaluated by the smooth muscle cell-specific marker SM22α (>97% for the stained cells). All the VSMCs used for the experiments were between the 3rd and 8th passages.
The cells (4 × 10^3 cells/well) were seeded into 96-well plates and cultured overnight. The cells were subjected to serum deprivation for 24 h. Then, the culture mixture was removed, and 100 μL of free FBS culture mixture was added to the above culture mixture. Ten microliters of CCK-8 solution was added to each well. The plates were read with a BioTek Epoch 2 Microplate Spectrophotometer (Agilent Technologies, California, USA). The experiment was organized into seven groups, which included a normal group, a high glucose group, and peptide segments: HLEVR, LTEVR, LEHGF, HLVNK, and LLDGR. These segments were tested at concentrations of 0.0313, 0.0625, 0.125, 0.25, and 0.5 mg/mL.

Ang II = Ang II level in VSMCs cultured in high glucose (ELISA); assay type: cell-based, Sprague–Dawley rats; details: high glucose (HG) + peptide
Description: as §1
The cells (2 × 10^4 cells per well) were first seeded into 24-well plates overnight. The supernatants were collected to measure the expression levels of Ang II via angiotensin II ELISA kits (ER1637, FineTest, Wuhan, China) according to the manufacturer's protocol. The absorbance of each well at 450 nm was determined via a multimode plate reader (BioTek Epoch2, Santa Clara, US).

VSMCs [4] = experiment: Western blot of protein expression in VSMCs (Ang II-induced or high glucose); assay type: cell-based, Sprague–Dawley rats; details: for ACE expression / expression of PCNA, MMP2, Bcl2 and Bax: VSMCs in high glucose (HG) + peptide
Description: as §1
Protein was extracted with RIPA buffer. Equal amounts of protein were separated via 8–10% SDS–PAGE (ACE, Changzhou, China) and then transferred to 0.22 μm PVDF membranes (Millipore, Bedford, MA, USA). The membranes were blocked with 5% skim milk and incubated overnight with the appropriate primary antibodies. HRP-conjugated secondary antibodies were then applied for binding and visualization through Western blot luminol reagent. Densitometry quantification was performed with ImageJ-V1.8.0.

Caco-2 cells = experiment: Caco-2 cell monolayer transport model (absorption simulation); assay type: in vitro ADME; details: Caco-2 monolayer integrity marker, 12-well inserts, TEER 468.09 ± 37.54 Ω/cm^2
Description: Caco-2 cells were obtained from the Cell Bank of the Chinese Academy of Sciences. The cells were cultured in Dulbecco's modified Eagle's medium (DMEM) supplemented with 20% FBS and 1% penicillin/streptomycin (P/S) at 37°C and 5% CO2 in a humidified incubator.
Caco-2 cells were seeded in each chamber of a 12-well plate, which was equipped with cell culture inserts ([26]). The transepithelial electrical resistance (TEER) across the monolayer was measured every 2 days via a cell resistance meter (RE1600, Beijing Jegon Instrumentation Co., Ltd.). The integrity of the cell monolayer was assessed with fluorescein isothiocyanate (FITC). TEER values > 350 Ω/cm^2 were considered to indicate successful construction and validation of the Caco-2 cell transport model. The FITC permeability was < 5 × 10^−[…], indicating the integrity of the cell monolayer.
Broccoli protease hydrolysate was added to the apical (AP) side. After 120 min, the media from both the AP and basolateral (BL) sides were collected for subsequent analysis. The wells without cells or samples served as the control group, whereas the wells without samples served as the blank group.

T1 sequence (P12821 30-1306, species assumed): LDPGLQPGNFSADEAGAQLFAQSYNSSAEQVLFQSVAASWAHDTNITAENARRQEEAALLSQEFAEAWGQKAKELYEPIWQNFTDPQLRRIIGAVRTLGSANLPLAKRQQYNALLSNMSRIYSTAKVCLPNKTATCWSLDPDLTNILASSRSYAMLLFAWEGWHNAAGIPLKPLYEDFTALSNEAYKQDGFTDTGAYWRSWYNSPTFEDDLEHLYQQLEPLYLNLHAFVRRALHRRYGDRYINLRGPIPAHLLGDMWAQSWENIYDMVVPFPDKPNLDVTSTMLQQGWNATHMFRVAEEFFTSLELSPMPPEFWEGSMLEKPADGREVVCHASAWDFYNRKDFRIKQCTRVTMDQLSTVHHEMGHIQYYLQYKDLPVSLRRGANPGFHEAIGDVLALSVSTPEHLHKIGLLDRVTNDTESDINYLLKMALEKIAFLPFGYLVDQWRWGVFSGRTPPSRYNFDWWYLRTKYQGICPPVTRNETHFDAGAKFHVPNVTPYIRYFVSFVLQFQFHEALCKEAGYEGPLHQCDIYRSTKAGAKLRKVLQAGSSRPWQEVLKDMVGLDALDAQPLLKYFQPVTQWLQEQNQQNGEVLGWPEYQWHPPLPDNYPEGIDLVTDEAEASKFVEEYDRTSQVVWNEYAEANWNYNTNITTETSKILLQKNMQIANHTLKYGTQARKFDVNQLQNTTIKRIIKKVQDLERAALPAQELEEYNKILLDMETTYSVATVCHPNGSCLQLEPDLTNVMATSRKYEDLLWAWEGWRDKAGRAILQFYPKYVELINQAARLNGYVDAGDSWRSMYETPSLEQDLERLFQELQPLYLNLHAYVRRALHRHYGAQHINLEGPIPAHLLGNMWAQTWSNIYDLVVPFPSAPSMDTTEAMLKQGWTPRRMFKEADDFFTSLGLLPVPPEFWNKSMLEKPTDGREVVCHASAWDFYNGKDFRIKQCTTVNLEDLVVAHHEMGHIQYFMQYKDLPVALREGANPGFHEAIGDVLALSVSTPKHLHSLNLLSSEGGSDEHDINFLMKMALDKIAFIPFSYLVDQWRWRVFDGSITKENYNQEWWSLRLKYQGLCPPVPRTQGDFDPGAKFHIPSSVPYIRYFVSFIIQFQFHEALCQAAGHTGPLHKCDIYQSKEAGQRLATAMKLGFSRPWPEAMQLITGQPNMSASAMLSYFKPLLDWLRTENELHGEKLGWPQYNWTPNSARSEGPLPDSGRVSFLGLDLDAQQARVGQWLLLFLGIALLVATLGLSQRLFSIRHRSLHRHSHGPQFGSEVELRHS

LTEVR [LTEVR]
IC50 [1]: 17.1 ± 1.37 mM
Digestion stability (%) [2]: 98.82 ± 3.92%
cell viability of VSMCs (VSMCs [3]; peptide 0.5 mg/mL): not significant
VSMC proliferation / viability (VSMCs [3]): effectively reduce VSMC viability
Ang II levels in VSMCs (Ang II): significantly reduced Ang II levels; also recorded: significantly inhibit intracellular Ang II levels
ACE expression (VSMCs [4]): modulated ACE expression
expression of PCNA, MMP2, Bcl2 and Bax (VSMCs [4]): significantly restored the expression of these proteins

lucifer yellow
apparent permeability coefficient (Papp) (Caco-2 cells): 2.87 ± 0.53 × 10^−7 cm^2/s

LEHGF [LEHGF]
IC50 [1]: 0.64 ± 0.02 mM
Digestion stability (%) [2]: 97.85 ± 6.31%

LLDGR [LLDGR]
IC50 [1]: 2.81 ± 0.12 mM

HLEVR [HLEVR]
IC50 [1]: 3.19 ± 0.23 mM
Digestion stability (%) [2]: 94.27 ± 2.64%

HLVNK [HLVNK]
IC50 [1]: 0.06 ± 0.01 mM
Digestion stability (%) [2]: 95.78 ± 3.73%
VSMC proliferation / viability (VSMCs [3]): effectively reduce VSMC viability
Ang II levels in VSMCs (Ang II): significantly inhibit intracellular Ang II levels
Ang II levels in VSMCs (Ang II; listed as HLLVNK): significantly reduced Ang II levels
ACE expression (VSMCs [4]): modulated ACE expression
expression of PCNA, MMP2, Bcl2 and Bax (VSMCs [4]): significantly restored the expression of these proteins

angiotensin II (DRVYIHPF; Angiotensin-2; UniProt P01019 25-32, looked up) [Ang II, angiotensin II, used to induce VSMC dysfunction]
downregulation of ACE2 expression (VSMCs [4]; VSMCs treated with Ang II): 15.60 ± 0.028%
upregulation of ACE expression (VSMCs [4]; VSMCs treated with Ang II): 136.50 ± 0.017%
upregulation of AT1R expression (VSMCs [4]; VSMCs treated with Ang II): 27.31 ± 0.020%
upregulation of BCL2 expression (VSMCs [4]; VSMCs treated with Ang II): 40.26 ± 0.051%
upregulation of ERK1/2/Total ERK (VSMCs [4]; VSMCs treated with Ang II): 128.17 ± 0.028%
upregulation of MMP2 expression (VSMCs [4]; VSMCs treated with Ang II): 14.97 ± 0.044%
upregulation of PCNA expression (VSMCs [4]; VSMCs treated with Ang II): 49.56 ± 0.01%
upregulation of pp38/Total p38 (VSMCs [4]; VSMCs treated with Ang II): 14.58 ± 0.041%
